According to PMC6938330, “Crystal structures of p120RasGAP N-terminal SH2 domain in its apo form and in complex with a p190RhoGAP phosphotyrosine peptide” (PLoS ONE, 2019):
Values joined by “and” are separate entries in the source; they are usually repeats but may differ in a detail not shown here. Equal entries are not always repeated. Blank lines part the entries; values can stand above or below the molecule they belong to. Where a SMILES comes first, the peptide text is derived from it. [ ]: non-standard residue; d: D form. pY = N[C@@H](Cc1ccc(OP(=O)(O)O)cc1)C(=O)O

How the values were obtained:
[1] = biological target: T1, N-terminal SH2 domain of p120RasGAP (Homo sapiens, UniProt P20936, C236S/C261S); assay: Isothermal titration calorimetry (ITC), wild-type N-SH2; conditions: 20mM Tris 7.4, 150mM NaCl, independent binding model
T1 construct: cDNA of residues 174 through 280 of human p120RasGAP (UniProt ID: P20936); made in house; host or cells: E. coli Rosetta(DE3)
T1 sequence (P20936 174-280 C236S/C261S): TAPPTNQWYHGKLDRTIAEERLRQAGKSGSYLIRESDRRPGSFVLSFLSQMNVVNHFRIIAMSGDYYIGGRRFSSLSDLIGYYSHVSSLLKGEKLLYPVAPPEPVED
Description: (§1) cDNA of residues 174 through 280 of human p120RasGAP (UniProt ID: P20936) encoding the N-terminal SH2 domain tagged was subcloned into a modified pET28a vector with an N-terminal hexahistidine tag and TEV protease recognition sequence. Two native cysteines, C236 and C261, were mutated to serine to prevent disulfide bridge formation. Following transformation into Rosetta(DE3) cells, a 1L culture was induced overnight at OD600 of 0.6–0.8 and 18°C using 0.2 mM IPTG. Cells were harvested by centrifugation and resuspended in lysis buffer (50 mM HEPES pH 7.3, 500 mM NaCl). Lysis was facilitated by lysozyme addition and three freeze/thaw cycles, prior to sonication and DNAse I addition. Clarified lysate was prepared by centrifugation at 5000 x g at 4°C and incubated with nickel beads (Ni-NTA Agarose, Qiagen) for 1 hr at 4°C to capture hexahistidine-tagged protein. Following washing with 3 column volumes of wash buffer (50 mM HEPES pH 7.3, 500 mM NaCl, 20mM imidazole), TEV protease was added overnight at 4 °C to cleave the SH2 domain protein from the hexahistidine-tag. The next day, flow through containing tag-free SH2 domain protein was collected and the beads were washed with several column volumes of wash buffer to fully remove the cleaved protein from the beads. Size exclusion chromatography (Superdex 75, GE Healthcare) was performed on p120RasGAP N-SH2 in 20 mM Tris pH 7.4 and 150 mM NaCl. Yield was 20 mg/L culture. Protein was concentrated by centrifugal filter (Amicon Ultra, Millipore Sigma).
(§2) A synthetic 13 amino acid peptide of sequence EEENI(p-Tyr)SVPHDST native to p190RhoGAP residues 1100 to 1112 phosphorylated at Tyr-1105, with N-terminal acetylation and C-terminal amidation, was commercially synthesized (GenScript) and re-suspended in sterile-filtered water.
(§3) The N-SH2 protein and pTyr1105 peptide were prepared for ITC by overnight dialysis in a common buffer with a 20mM Tris 7.4, 150mM NaCl composition. Slide-A-Lyzer Dialysis Cassettes with a molecular weight cut-off of 3,500 Da were used for protein dialysis and Micro Float-A-Lyzer Dialysis devices with a 100–500 Da cut-off for peptide dialysis. Samples were retrieved from their cartridges, spun down for 10 minutes at 4°C. Concentrations were measured using a Nanodrop spectrophotometer at 280 nm. To determine peptide concentration, a phosphotyrosine extinction coefficient of 458.6 M^-1cm^-1 at pH 7.4 was used. Two ITC experiments were performed using a Nano-ITC (TA Instruments). Both protein and peptide were degassed for 3 minutes prior to loading. 350 μL of protein were injected into the sample cell. The injection burette was loaded with 52 μL of peptide. 20 injections of 2.5 μL of peptide, each spanning 300 seconds, were performed per ITC run. Results were analyzed using the nano-ITC software, through fitting to an independent binding model.
We conducted isothermal titration calorimetry to assess the interaction between the N-terminal SH2 domain of p120RasGAP and the p190RhoGAP pTyr-1105 peptide. We injected the p190RhoGAP pTyr-1105 peptide at a concentration of 78.5 μM into N-SH2 at a concentration of 15 μM. Averaged over two independent experiments we observe a Kd of 0.3 ± 0.1 μM (Fig 5A).

[2] = test system: R207A mutated N-SH2 (p120RasGAP); assay: Isothermal titration calorimetry (ITC), R207A mutant N-SH2; assay type: binding, human
Description: (§4) A mutant form, with R207A mutation, was introduced by QuikChange mutagenesis (Agilent) using forward and reverse primers (5'-[…]-3', 5'- […]-3’). Expression and purification were by identical methods as wild type protein. Yield for the mutant was 4 mg/L culture. Both wild type and mutant constructs elute from size exclusion chromatography as monodisperse peaks.
as §2
as §3, with “Two ITC experiments were performed using a Nano-ITC (TA Instruments). Both protein and peptide were degassed for 3 minutes prior to loading. 350 μL of protein were injected into the sample cell. The injection burette was loaded with 52 μL of peptide. 20 injections of 2.5 μL of peptide, each spanning 300 seconds, were performed per ITC run.” left out, “model. […]” for “model.”

[3] = test system: wild-type p120RasGAP N-SH2; assay: Native PAGE gel shift, wild-type N-SH2; assay type: binding, human; conditions: saturating peptide concentrations; protein 0.08 mM, peptide 0.02 to 0.15 mM (peptide:protein 0.25 to 1.9); on ice 10 min; 50 mM Tris pH 7.4; 4–20% gel, pH 8.3, 200 V 1 h; Coomassie
Description: as §1, with “Size exclusion chromatography (Superdex 75, GE Healthcare) was performed on p120RasGAP N-SH2 in 20 mM Tris pH 7.4 and 150 mM NaCl. Yield was 20 mg/L culture. Protein was concentrated by centrifugal filter (Amicon Ultra, Millipore Sigma).” left out

[4] = test system: R207A mutant p120RasGAP N-SH2; assay: Native PAGE gel shift, R207A mutant N-SH2; assay type: binding, human; conditions: protein 0.08 mM, peptide 0.02 to 0.15 mM (peptide:protein 0.25 to 1.9); on ice 10 min; 50 mM Tris pH 7.4; 4–20% gel, pH 8.3, 200 V 1 h; Coomassie
Description: as §4, §2
A serial dilution series of pTyr-1105 phosphopeptide was performed in dilution buffer (50 mM Tris pH 7.4), and mixed with wild-type or R207A mutant N-terminal SH2 domain protein for a final protein concentration of 0.08 mM and a phosphopeptide concentration ranging from 0.02 mM to 0.15 mM (peptide:protein ratio ranging from 0.25 to 1.9). The protein-peptide mixtures, or protein alone as negative control, were incubated on ice for 10 minutes and then centrifuged for 1 minute at 4 °C. 10 μL of 2X native protein sample buffer (62.5 mM Tris HCL pH 6.8, 40% glycerol, 0.01% bromophenol blue) was then added to all samples. […]

[5] = biological target: T2, p120RasGAP N-terminal SH2 domain (residues 174-280, C236S, C261S) (human, UniProt P20936 174-280, C236S | C261S); assay: ITC; peptide in the burette injected into N-SH2 in the cell (78.5 μM into 15 μM wild type; 120 μM into 15 μM R207A); 20 mM Tris 7.4, 150 mM NaCl; Nano-ITC, 20 injections of 2.5 μL; independent binding model; two runs; conditions: both partners purified
T2 construct: human p120RasGAP (RASA1), residues 174 through 280, the N-terminal SH2 domain; two native cysteines mutated to serine; The His6 tag was removed with TEV protease; also called p120RasGAP N-SH2; N-SH2; source: E. coli Rosetta(DE3), purified (Ni-NTA, TEV cleavage, Superdex 75 SEC); not shown: His6, N-terminal, cleaved
T2 sequence (looked up): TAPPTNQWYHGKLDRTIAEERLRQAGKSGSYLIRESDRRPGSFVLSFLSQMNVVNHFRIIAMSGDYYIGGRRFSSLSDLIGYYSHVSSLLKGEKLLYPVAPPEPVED

[6] = biological target: p190RhoGAP pTyr-1105 peptide pTyr-1105 peptide (Homo sapiens, UniProt Q9NRY4, pTyr1105); assay: ITC

Kd ([1]; averaged over two independent ITC experiments, peptide at 78.5 μM injected into N-SH2 (residues 174-280, C236S/C261S) at 15 μM, 20 injections of 2.5 μL, 300 s each, read-out: Kd (dissociation constant)): 300 ± 100 nM
TΔS ([1]; run 1 of two): -8.9 kcal/mol
ΔG ([1]; run 1 of two): -8.7 kcal/mol
ΔH ([1]; run 1 of two): -17.6 kcal/mol
TΔS ([1]; run 2 of two): -4.9 kcal/mol
ΔG ([1]; run 2 of two): -9.0 kcal/mol
ΔH ([1]; run 2 of two): -13.9 kcal/mol
heat of binding ([2]; peptide at 120 μM injected into R207A mutated N-SH2 at 15 μM, 20mM Tris 7.4, 150mM NaCl): do not observe measurable heat
Molecule: CC[C@H](C)[C@H](NC(=O)[C@H](CC(N)=O)NC(=O)[C@H](CCC(=O)O)NC(=O)[C@H](CCC(=O)O)NC(=O)[C@H](CCC(=O)O)NC(C)=O)C(=O)N[C@@H](Cc1ccc(OP(=O)(O)O)cc1)C(=O)N[C@@H](CO)C(=O)N[C@H](C(=O)N1CCC[C@H]1C(=O)N[C@@H](Cc1c[nH]cn1)C(=O)N[C@@H](CC(=O)O)C(=O)N[C@@H](CO)C(=O)N[C@H](C(N)=O)[C@@H](C)O)C(C)C [p190RhoGAP pTyr-1105 peptide] (Ac-EEENI[pY]SVPHDST-NH2)
interaction upon mutation of the FLVR motif arginine residue ([2]; R207A mutant, summarising statement of the Conclusions (ITC and native PAGE)): abolishes interaction
mobility shift in native gel [3]: significant increase in its mobility in the gel
mobility shift in native gel [4]: fails to shift

Kd [5]: 240 nM and 430 nM
dH [5]: -17.6 kcal/mol and -13.9 kcal/mol
stoichiometry N [5]: 0.724 and 0.63
B1: p190RhoGAP pTyr-1105 phosphopeptide EEENI(p-Tyr)SVPHDST (residues 1100-1112) (peptide)
peptide: Ac-EEENI[pY]SVPHDST-NH2
SMILES: CC[C@H](C)[C@H](NC(=O)[C@H](CC(N)=O)NC(=O)[C@H](CCC(=O)O)NC(=O)[C@H](CCC(=O)O)NC(=O)[C@H](CCC(=O)O)NC(C)=O)C(=O)N[C@@H](Cc1ccc(OP(=O)(O)O)cc1)C(=O)N[C@@H](CO)C(=O)N[C@H](C(=O)N1CCC[C@H]1C(=O)N[C@@H](Cc1c[nH]cn1)C(=O)N[C@@H](CC(=O)O)C(=O)N[C@@H](CO)C(=O)N[C@H](C(N)=O)[C@@H](C)O)C(C)C
notes: The sixth residue (Y) is phosphotyrosine; also called pTyr1105 peptide; source: synthetic peptide (GenScript)

Kd [6]: 300 nM
B2: p120RasGAP N-terminal SH2 (protein)
chain: WYHGKLDRTIAEERLRQAGKSGSYLIRESDRRPGSFVLSFLSQMNVVNHFRIIAMCGDYYIGGRRFSSLSDLIGYYSHVSCLLKGEKLLYPV
